Like-named read-outs stand apart in the source and are kept apart here.
Columns and labels:
[1] = test system: DU 145 prostate cancer cell line; assay: Cytotoxicity, SRB assay, DU 145; type: cell-based, human; details: Homo sapiens
Experimental: (§1) The SRB Assay was used to determine cell number during cytotoxocity experiments. The following protocol was used: • 1. […] Experimental cultures were cultured in 96-well microtiter plates (200 uL growth medium per well; 1,000-200,000 cells per well). • 3. Cultures were fixed with 50 uL 50% TCA (4° C.). (see cell fixation protocol for details). • 4. Fixed cells were stained with 50 uL 0.4% (wt/vol) SRB in 1% acetic acid for 10 minutes. • 5. SRB was removed and the cultures were quickly* rinsed 5 times with 1% acetic acid to remove unbound dye.** • 6. Cultures were air-dried overnight until there is no visible moisture. • 7. […] Absorbance was read at 540 nm. • * quickly performing rinsing process is to prevent desorption of protein-bound SRB • ** completely remove residual wash solution by sharply flicking plates over sink. Fixation of Cells Attached to the Plastic Substratum
(§2) The following protocol was used for fixing cells: • a. 50 uL of 50% TCA (4° C.) were gently layered on the top of growth medium in each well to make a final TCA concentration of 10%. • b. Cultures were incubated at 4° C. for 1 hour. • c. Cultures were washed 5 times with tap water to remove TCA, growth medium, low-molecular-weight metabolites, and serum protein. • d. Plates were air-dried until there was no visible moisture.

CV-1 control cell line = assay: Cytotoxicity, SRB assay, CV-1 control; type: cell-based, African green monkey; details: Chlorocebus sabaeus
Experimental: (§3) The SRB Assay was used to determine cell number during cytotoxocity experiments. The following protocol was used: • 1. Cells were detached with 0.25% trypsin. • 2. Experimental cultures were cultured in 96-well microtiter plates (200 uL growth medium per well; 1,000-200,000 cells per well). • 3. Cultures were fixed with 50 uL 50% TCA (4° C.). (see cell fixation protocol for details). • 4. Fixed cells were stained with 50 uL 0.4% (wt/vol) SRB in 1% acetic acid for 10 minutes. • 5. SRB was removed and the cultures were quickly* rinsed 5 times with 1% acetic acid to remove unbound dye.** • 6. Cultures were air-dried overnight until there is no visible moisture. • 7. The cellular protein-bound SRB was dissolved with 200 uL unbuffered Tris base (10 mM, pH 10.5) for 30 minutes on a rocking platform shaker. • 8. Absorbance was read at 540 nm. • * quickly performing rinsing process is to prevent desorption of protein-bound SRB • ** completely remove residual wash solution by sharply flicking plates over sink. Fixation of Cells Attached to the Plastic Substratum
as §2

[2] = test system: TSU prostate cancer cell line; assay: Cytotoxicity, SRB assay, TSU; type: cell-based, human; details: Homo sapiens, read-out: IC50 TSU
Experimental: as §1, §2

[3] = test system: TCCSUP bladder cancer cell line; assay: Cytotoxicity, SRB assay, TCCSUP; type: cell-based, human; details: Homo sapiens, TCC-SUP, read-out: IC50 TCCSUP
Experimental: as §1, §2

[4] = test system: PPC-1 prostate cancer cell line; assay: Cytotoxicity, SRB assay, PPC-1; type: cell-based, human; details: Homo sapiens
Experimental: as §1, §2

[5] = test system: AR-expressing LNCaP prostate cancer cell line; assay: Cytotoxicity, SRB assay, LNCaP; type: cell-based, human; details: Homo sapiens, LNCaP
Experimental: as §1, §2

[6] = test system: PC-3 bone metastatic prostate cancer cell line; assay: Cytotoxicity, SRB assay, PC-3; type: cell-based, human; details: Homo sapiens
Experimental: PPC-1, LNCaP, TSU, PC-3, and DU145 were grown in PRMI-1640 medium containing 2 mM L-glutamine supplemented with 10% fetal bovine serum (FBS). Cells were maintained in a 5% CO2/95% air humidified atomosphere at 37° C.
as §3, §2

[7] = test system: HT-29 colorectal adenocarcinoma cell line; assay: Cytotoxicity, SRB assay, HT-29; type: cell-based, human; details: Homo sapiens
Experimental: as §1, §2

DU 145 cells = assay: Induction of apoptosis, DU 145; type: cell-based, human
Experimental: (§4) The ability of DJ 1-31, DJ 1-29, S-NTBA and Compound V to induce apoptosis in different prostate cancer cell lines (DU 145, PC-3, TSU, PPC-1 and LNCaP), in other cancer cell lines (TCCSUP, HT-29 and MCF-7) and in a control cell line (CV-1) was determined and the results are shown in Table 6.

CV-1 cells = assay: Induction of apoptosis, CV-1; type: cell-based, African green monkey
Experimental: as §4

TCCSUP cells = assay: Induction of apoptosis, TCCSUP; type: cell-based, human
Experimental: as §4

PC-3 cells = assay: Induction of apoptosis, PC-3; type: cell-based, human
Experimental: as §4

LNCaP cells = assay: Induction of apoptosis, LNCaP; type: cell-based, human
Experimental: as §4

MCF-7 cells = assay: Induction of apoptosis, MCF-7; type: cell-based
Experimental: as §4

PPC-1 cells = assay: Induction of apoptosis, PPC-1; type: cell-based, human
Experimental: as §4

TSU cells = assay: Induction of apoptosis, TSU; type: cell-based, human
Experimental: as §4

HT-29 cells = assay: Induction of apoptosis, HT-29; type: cell-based, human
Experimental: as §4

[8] = 24 h, read-out: IC50 LNCaP 24 hr treatment
[9] = 144 h, read-out: IC50 LNCaP 6 day treatment

## C[C@](O)(CSc1ccc(NC(=O)CCl)cc1)C(=O)Nc1ccc(C#N)c(C(F)(F)F)c1 [R-CTF-T-CA-1]
[1]; DU-145, read-out: IC50 DU145
  IC50: 2.6 ± 0.1 µM
CV-1 control cell line; 24 h, read-out: IC50 CV-1 24 hr treatment
  IC50: 6.2 ± 0.2 µM
CV-1 control cell line; 96 h, read-out: IC50 CV-1 4 day treatment
  IC50: 4.2 µM
CV-1 control cell line; read-out: IC50 CV-1 (Control)
  IC50: 2.7 ± 1 µM
[2]
  IC50: 1.5 ± 0.2 µM
[3]
  IC50: 1.8 ± 0.2 µM
[4]; PPC-1, read-out: IC50 PPC-1
  IC50: 2.5 ± 0.1 µM
[5]; [8]
  IC50: 3.5 µM
[5]; [9]
  IC50: 1.7 µM
[5]; read-out: IC50 LNCaP
  IC50: 1.1 ± 0.2 µM
[6]; 24 h, read-out: IC50 PC-3 24 hr treatment
  IC50: 5800 nM
[6]; 96 h, read-out: IC50 PC-3 4 day treatment
  IC50: 4300 nM
[6]; read-out: IC50 PC-3
  IC50: 6100 ± 500 nM
[7]; HT-29, read-out: IC50 HT-29
  IC50: 6.4 ± 0.5 µM

## C[C@@](O)(CBr)C(=O)Nc1ccc([N+](=O)[O-])c(C(F)(F)F)c1 [S-NTBA]
[1]; DU-145, Table 2A, Example 1, read-out: IC50 DU145
  IC50: 4.7 ± 0.3 µM
CV-1 control cell line; 24 h, drug incubation time 1 day, Example 4, read-out: IC50 CV-1
  IC50: > 50 µM
CV-1 control cell line; 96 h, 4 day treatment, Example 2, read-out: IC50 CV-1 4 day treatment
  IC50: 4.9 µM
CV-1 control cell line; 96 h, drug incubation time 4 day, Example 4, read-out: IC50 CV-1
  IC50: 38.6 ± 3.6 µM
CV-1 control cell line; 24 hr treatment, Example 2, read-out: IC50 CV-1 24 hr treatment
  IC50: 48.2 ± 10.9 µM
CV-1 control cell line; Table 2B, Example 1, read-out: IC50 CV-1 (Control)
  IC50: 12.7 ± 0.3 µM
DU 145 cells
  Enrichment factor DU 145: 1.929
CV-1 cells
  Enrichment factor CV-1: 0.393
[2]; Table 2A, Example 1
  IC50: 3.5 ± 0.2 µM
TCCSUP cells
  Enrichment factor TCCSUP: 0.118
PC-3 cells
  Enrichment factor PC-3: 0.750
LNCaP cells
  Enrichment factor LNCaP: 0.660
[3]; Table 2B, Example 1
  IC50: 2.4 ± 0.3 µM
MCF-7 cells
  Enrichment factor MCF-7: 2.012
[4]; PPC-1, Table 2A, Example 1, read-out: IC50 PPC-1
  IC50: 2.2 ± 0.2 µM
PPC-1 cells
  Enrichment factor PPC-1: 0.697
[5]; [8]
  IC50: 4.4 µM
[5]; [9]
  IC50: 2.1 µM
[5]; read-out: IC50 LNCaP
  IC50: 1.4 ± 0.2 µM
[6]; 96 h, 4 day treatment, Example 3, read-out: IC50 PC-3 4 day treatment
  IC50: 18000 nM
[6]; 24 hr treatment, Example 3, read-out: IC50 PC-3 24 hr treatment
  IC50: > 50000 nM
[6]; Table 2A, Example 1, read-out: IC50 PC-3
  IC50: 3100 ± 600 nM
TSU cells
  Enrichment factor TSU: 0.705
[7]; HT-29, Table 2B, Example 1, read-out: IC50 HT-29
  IC50: 6.3 ± 0.3 µM
HT-29 cells
  Enrichment factor HT-29: 1.538

## CC(=O)O[C@H]1C(=O)[C@@]2(C)[C@H]([C@H](OC(=O)c3ccccc3)[C@]3(O)C[C@H](OC(=O)[C@H](O)[C@@H](NC(=O)c4ccccc4)c4ccccc4)C(C)=C1C3(C)C)[C@]1(OC(C)=O)CO[C@@H]1C[C@@H]2O [Taxol, reference compound]
[1]; DU-145, read-out: IC50 DU145
  IC50: 0.0027 ± 0.0003 µM
[2]
  IC50: 0.0024 ± 0.0008 µM
[3]
  IC50: 0.0043 ± 0.0006 µM
[4]; PPC-1, read-out: IC50 PPC-1
  IC50: 0.0027 ± 0.0003 µM
[5]; read-out: IC50 LNCaP
  IC50: 0.0019 ± 0.0003 µM
[6]; Table 2A, Taxol in nM, read-out: IC50 PC-3
  IC50: 6.3 ± 0.6 nM
[7]; HT-29, read-out: IC50 HT-29
  IC50: 0.0066 ± 0.0006 µM

Reference: patent US20060035966A1, “Irreversible selective androgen receptor modulators and methods of use thereof” (priority 2002, published 2006)
